Laboratory results: patent US4207311A, “Peptides having analgesic and thermoregulative properties” (The Salk Institute for Biological Studies, priority 1977, dated 1980)
Square brackets hold non-standard residues; d marks the D form. Peptide text beside a SMILES is read from it. pGlu = O=C1CC[C@@H](C(=O)O)N1

Tested on: cold exposed rat
Experiment: hypothermia in cold exposed rats after intracisternal injection (rectal/core temperature)
Assay type: in vivo
Procedure: Male Sprague-Dawley-CV rats weighing 180-200 grams were housed in temperature and humidity controlled quarters. The rats were fed a standard rat food ration and tap water ad libitum. After being anesthetized with ether, peptides were injected into the cisterna magna of each rat. Ten microliters of a peptide solution containing 1-1000 nanograms of the peptide were injected. Immediately following the injections, the animals were transferred to a cold room maintained at 4° C. Rectal temperatures were recorded with a thermo probe at 30 minute intervals following injection. All experiments were carried out in a randomized block design. Following analyses of variance, differences between the effect of the various peptides were determined. The peptides were dissolved in a buffer composed of 126 mM, NaCl, 6 mM KCl, 1 mM NaH2 PO4, 0.88 mM MgSo4, 1.45 mM CaCl2, and 25 mM HEPES pH 7.2.
Other peptides isolated from anuran skin, i.e., litorin, ranatensin and alytesin, are approximately 1%, 10% and 100% respectively as potent as the peptide described above to lower body temperature of the cold exposed rat.

## CSCC[C@H](NC(=O)[C@H](Cc1ccccc1)NC(=O)[C@H](Cc1c[nH]cn1)NC(=O)CNC(=O)[C@@H](NC(=O)[C@H](C)NC(=O)[C@H](Cc1c[nH]c2ccccc12)NC(=O)[C@H](CCC(N)=O)NC(=O)[C@@H]1CCCN1C(=O)[C@@H](NC(=O)[C@@H]1CCC(=O)N1)C(C)C)C(C)C)C(N)=O [ranatensin] ([pGlu]VPQWAVGHFM-NH2)
Cold exposed rat
  potency relative to the peptide of Example I to lower body temperature: ~10%

## CSCC[C@H](NC(=O)[C@H](CC(C)C)NC(=O)[C@H](Cc1cnc[nH]1)NC(=O)CNC(=O)[C@@H](NC(=O)[C@H](C)NC(=O)[C@H](Cc1c[nH]c2ccccc12)NC(=O)[C@H](CCC(N)=O)NC(=O)[C@H](CC(N)=O)NC(=O)CNC(=O)[C@H](CC(C)C)NC(=O)[C@H](CCCN=C(N)N)NC(=O)[C@H](CCC(N)=O)NC(=O)[C@@H]1CCC(=O)N1)C(C)C)C(N)=O [the peptide of the invention]
Cold exposed rat (4° C.), graded doses, core temperature 60 minutes following administration
  potency relative to Neurotensin to produce hypothermia: at least 10^4 times
